Consider 24 compounds from US11613531B2, “Inhibitors of RHO associated coiled-coil containing protein kinase” (Kadmon Corporation, LLC, priority 2017, dated 2023).

The target of test [1] is Recombinant ROCK2 (amino acids 1-552) (Homo sapiens (Human), UniProt O75116). As to the kind of experiment: Z′-Lyte kinase assay, ROCK2. The format is biochemical. The conditions noted are these: for inhibition at 0.5 µM: 0.5 μM compound, read-out: ROCK2 % inh. @ [conc]. A digest of the protocol:
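Recombinant human ROCK1 (aa 1-535) or ROCK2 (aa 1-552) activity read by Z′-Lyte kinase assay. Percent inhibition at 1 μM compound was normalized to DMSO control; IC50 from 9-point 2-fold serial dilutions by nonlinear regression.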

Test [2] deals with Recombinant ROCK1 (amino acids 1-535) (Homo sapiens (Human), UniProt Q13464). As to the kind of experiment: Z′-Lyte kinase assay, ROCK1. Conditions: 0.5 μM compound; read-out: ROCK1 % inh. @ [conc]. It is filed as biochemical. The method, then: Determination of Compound's ROCK Inhibitory Activity In Vitro (Z'Lyte Assay).
Chain of Recombinant ROCK1 (amino acids 1-535) (Q13464 1-535): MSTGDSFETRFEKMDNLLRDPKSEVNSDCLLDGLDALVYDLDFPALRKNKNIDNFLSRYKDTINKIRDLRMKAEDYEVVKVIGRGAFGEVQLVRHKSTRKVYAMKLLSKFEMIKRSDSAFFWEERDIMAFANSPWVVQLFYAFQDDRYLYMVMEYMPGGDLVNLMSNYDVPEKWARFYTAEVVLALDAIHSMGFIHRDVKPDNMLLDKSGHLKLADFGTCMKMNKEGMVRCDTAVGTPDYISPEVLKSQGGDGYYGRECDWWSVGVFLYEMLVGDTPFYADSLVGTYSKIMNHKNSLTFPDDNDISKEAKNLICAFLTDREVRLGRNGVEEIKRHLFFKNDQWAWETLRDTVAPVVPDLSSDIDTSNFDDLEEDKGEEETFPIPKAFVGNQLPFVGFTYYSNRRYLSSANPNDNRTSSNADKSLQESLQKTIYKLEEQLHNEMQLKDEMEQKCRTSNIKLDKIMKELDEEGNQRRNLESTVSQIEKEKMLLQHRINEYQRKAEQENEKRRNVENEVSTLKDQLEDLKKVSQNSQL
Recombinant ROCK1 (amino acids 1-535) and ROCK2 (amino acids 1-552) proteins were purchased from ThermoFisher Scientific. Compound's activities were measured by Z′-lyte kinase kit (ThermoFisher Scientific) and IC50 was calculated
In vitro activities for the compounds were measured with Z′-lyte kinase kit (ThermoFisher Scientific). The percent inhibition rate was calculated by normalizing the kinase activity value obtained with 1 μM compound treatment against DMSO control value and then applied to the formula, [1-(compound/DMSO)]×100%. IC50s were calculated using the nonlinear regression curve fit function of the GraphPad Prism software with kinase activities data measured with 9 points 2-fold serial dilution of compounds treatment. In cell pMLC IC50s were calculated with data obtained from A7R5 cell experiments. A7R5 cells were treated with 9 points 2-fold serial dilution of compounds and ppMlc (T18/S19) levels were determined to calculate cellular IC50 values of the compounds using the nonlinear regression curve fit function of the GraphPad Prism software. NIH3T3 cells stably expressing ACTA2-promoter-driven-luciferase were applied to measure ROCK compounds functional IC50s in cells. Cells were plated in 96 well plates to confluence and treated with 9 points serial dilution of compounds in combination with TGFβ1 for 24 hr. Luciferase activities were measured and compound's IC50s were calculated using the nonlinear regression curve fit function of the GraphPad Prism software.

Test [3] deals with ppMlc (T18/S19) levels in A7R5 cells. Put plainly: A7R5 in-cell ELISA (pMLC). The format is cell-based, Rat. The conditions noted are these: for pMLC % inh A7R5 @ [conc]: A7R5 cells; for pMLC % inh A7R5 @ [conc] / inhibition at 10 µM: 10 μM compound. Put shortly: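 A7R5 rat aortic smooth muscle cells seeded 24 h, then treated 90 min with a 9-point 2-fold compound dilution series. Fixed cells probed for ppMlc (T18/S19) by colorimetric in-cell ELISA; cellular IC50 from nonlinear regression curve fit.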
For orientation: ELISA stands for enzyme-linked immunosorbent assay.

Where [4] appears, read: Rattus norvegicus, A7R5, A7R5 cells.
Where [5] appears, read: Rattus norvegicus, A7R5, A7R5 cells, read-out: pMLC % inh A7R5 @ [conc].

Values joined by “and” are separate entries in the source; they are usually repeats but may differ in a detail not shown here. Equal values may be shown once.

Chain of Recombinant ROCK2 (amino acids 1-552) (O75116 1-552): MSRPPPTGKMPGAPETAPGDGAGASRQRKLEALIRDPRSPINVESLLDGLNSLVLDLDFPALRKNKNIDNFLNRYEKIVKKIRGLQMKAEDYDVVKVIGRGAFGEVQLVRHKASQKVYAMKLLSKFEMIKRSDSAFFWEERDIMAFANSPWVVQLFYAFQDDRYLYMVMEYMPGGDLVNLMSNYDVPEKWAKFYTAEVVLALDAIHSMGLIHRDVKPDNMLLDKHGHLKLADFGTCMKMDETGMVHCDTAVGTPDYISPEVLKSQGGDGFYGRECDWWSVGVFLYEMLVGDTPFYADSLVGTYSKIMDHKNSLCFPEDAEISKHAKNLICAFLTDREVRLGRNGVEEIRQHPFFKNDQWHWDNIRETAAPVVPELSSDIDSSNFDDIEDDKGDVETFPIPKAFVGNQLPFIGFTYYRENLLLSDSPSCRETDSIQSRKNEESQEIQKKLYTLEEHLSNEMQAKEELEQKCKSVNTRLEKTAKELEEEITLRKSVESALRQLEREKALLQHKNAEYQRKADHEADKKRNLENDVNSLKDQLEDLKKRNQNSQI

By IC50 is commonly meant the midpoint of a concentration-inhibition curve. With `c1cc2[nH]ncc2cc1Nc1nc(N2C3CCC2CNC3)nc2c1COCC2` [Example 46, 2-(3,8-diazabicyclo[3.2.1]octan-8-yl)-N-(1H-indazol-5-yl)-7,8-dihydro-5H-pyrano[4,3-d]pyrimidin-4-amine], in test [1], the IC50 was determined as 1 nM and the inhibition at 0.5 µM was 98%. Moreover, in test [2], the inhibition at 0.5 µM was found to be 98%.

For the compound `c1cc(-c2cn[nH]c2)ccc1Nc1nc(N2C3CCC2CNC3)nc2c1COCC2` [Example 243, N-(4-(1H-pyrazol-4-yl)phenyl)-2-(3,8-diazabicyclo[3.2.1]octan-8-yl)-7,8-dihydro-5H-pyrano[4,3-d]pyrimidin-4-amine], in test [1], the IC50 came out at 56 nM and the inhibition at 0.5 µM came to 80%. In test [2], the inhibition at 0.5 µM was determined as 67%.

On to `c1ccc(C2CCN(c3nccc(Nc4ccc(-c5cn[nH]c5)cc4)n3)C2)cc1` (stereo not drawn) [Example 270, N-(4-(1H-pyrazol-4-yl)phenyl)-2-(3-phenylpyrrolidin-1-yl)pyrimidin-4-amine], for which, in test [1], the IC50 was found to be 1430 nM. For the same compound, the “pMLC % inh A7R5 @ [conc]” value in test [3] was −6.9% and −8.9%.

On to `c1cc2c(Nc3ccc4[nH]ncc4c3)nc(N3C4CCC3CNC4)nc2s1` [Example 274, 2-(3,8-diazabicyclo[3.2.1]octan-8-yl)-N-(1H-indazol-5-yl)thieno[2,3-d]pyrimidin-4-amine], for which, in test [1], the IC50 amounted to 0.4 nM and the inhibition at 0.5 µM came out at 99%. Besides, the inhibition at 0.5 µM in test [2] was determined as 101%.

Turning to `c1cc2[nH]ncc2cc1Nc1nc(N2C3CCC2CNC3)nc2c1CNC2` [Example 275, 2-(3,8-diazabicyclo[3.2.1]octan-8-yl)-N-(1H-indazol-5-yl)-6,7-dihydro-5H-pyrrolo[3,4-d]pyrimidin-4-amine], in test [1], the 50% inhibitory concentration (IC50) amounted to 1.2 nM and the inhibition at 0.5 µM worked out at 90%. Moreover, the inhibition at 0.5 µM in test [2] came out at 95%.

With `c1cc(-c2cn[nH]c2)ccc1Nc1nc(N2C3CCC2CNC3)nc2c1CNC2` [Example 276, N-(4-(1H-pyrazol-4-yl)phenyl)-2-(3,8-diazabicyclo[3.2.1]octan-8-yl)-6,7-dihydro-5H-pyrrolo[3,4-d]pyrimidin-4-amine], in test [1], the half-inhibitory concentration (IC50) stood at 2.3 nM and the inhibition at 0.5 µM came out at 91%. Further, the inhibition at 0.5 µM in test [2] came out at 88%.

For `Clc1cnc(N2CC3CC(C2)N3)nc1Nc1ccc2[nH]ncc2c1` [Example 280, N-(2-(3,6-diazabicyclo[3.1.1]heptan-3-yl)-5-chloropyrimidin-4-yl)-1H-indazol-5-amine], in test [1], the IC50 was found to be 263 nM. Besides, in test [3] (Rattus norvegicus, A7R5, A7R5 cells, 1 μM compound, read-out: pMLC % inh A7R5 @ [conc]), the inhibition at 1 µM was determined as 26.6%.

Take `CN1CCc2nc(N3C4CCC3CNC4)nc(Nc3ccc(-c4cn[nH]c4)cc3)c2C1` [Example 303, N-(4-(1H-pyrazol-4-yl)phenyl)-2-(3,8-diazabicyclo[3.2.1]octan-8-yl)-6-methyl-5,6,7,8-tetrahydropyrido[4,3-d]pyrimidin-4-amine]: the IC50 in test [1] is 257 nM; in test [3] (setting [4]), above 10000 nM.

Consider `c1cc(-c2ccc(Nc3nc(N4C5CCC4CNC5)nc4c3CNC4)cc2)ccn1` [Example 306, 2-(3,8-diazabicyclo[3.2.1]octan-8-yl)-N-(4-(pyridin-4-yl)phenyl)-6,7-dihydro-5H-pyrrolo[3,4-d]pyrimidin-4-amine], for which the IC50 was above 1000 nM in test [1] and above 10000 nM in test [3] (setting [4]).

Regarding `c1cc(Nc2ccnc(N3CCNCC3)n2)cc(-c2cn[nH]c2)c1` [Example 347, N-(3-(1H-pyrazol-4-yl)phenyl)-2-(piperazin-1-yl)pyrimidin-4-amine], the IC50 in test [1] was above 10000 nM. Moreover, the inhibition at 10 µM in test [3] (setting [5]) came out at 17%.

`Nc1ccc(-c2ccc(Nc3ccnc(N4CCNCC4)n3)cc2)cn1` [Example 350, N-(4-(6-aminopyridin-3-yl)phenyl)-2-(piperazin-1-yl)pyrimidin-4-amine]: the IC50 in test [1] was determined as 3700 nM. Besides, in test [3] (setting [5]), the inhibition at 10 µM is 14.8%.

Consider `c1cc(Nc2ccc(-c3cnc[nH]3)cc2)nc(N2CCNCC2)n1` [Example 351, N-(4-(1H-imidazol-5-yl)phenyl)-2-(piperazin-1-yl)pyrimidin-4-amine], for which the IC50 in test [1] is above 10000 nM. The inhibition at 10 µM in test [3] (setting [5]) was 7.8%.

Turning to `c1cc(Nc2ccc(-c3cncs3)cc2)nc(N2CCNCC2)n1` [Example 353, 2-(piperazin-1-yl)-N-(4-(thiazol-5-yl)phenyl)pyrimidin-4-amine], the IC50 in test [1] is above 10000 nM. Moreover, the “pMLC % inh A7R5 @ [conc]” value in test [3] is 25.55%.

For the compound `c1cc(Nc2ccc(-c3nnc[nH]3)cc2)nc(N2CCNCC2)n1` [Example 354, N-(4-(4H-1,2,4-triazol-3-yl)phenyl)-2-(piperazin-1-yl)pyrimidin-4-amine], the IC50 in test [1] was above 10000 nM. Besides, the inhibition at 10 µM in test [3] (setting [5]) amounted to 6.4%.

Regarding `Nc1nc(-c2ccc(Nc3ccnc(N4CCNCC4)n3)cc2)cs1` [Example 355, 4-(4-((2-(piperazin-1-yl)pyrimidin-4-yl)amino)phenyl)thiazol-2-amine], in test [1], the IC50 is above 10000 nM. Further, in test [3] (setting [5]), the inhibition at 10 µM is 21.9%.

With `Nc1nnc(-c2ccc(Nc3ccnc(N4CCNCC4)n3)cc2)s1` [Example 356, 5-(4-((2-(piperazin-1-yl)pyrimidin-4-yl)amino)phenyl)-1,3,4-thiadiazol-2-amine], the IC50 in test [1] was above 10000 nM. Moreover, in test [3] (setting [5]), the inhibition at 10 µM worked out at 6.59%.

For the compound `O=c1ccc(-c2ccc(Nc3ccnc(N4CCNCC4)n3)cc2)n[nH]1` [Example 357, 6-(4-((2-(piperazin-1-yl)pyrimidin-4-yl)amino)phenyl)pyridazin-3 (2H)-one], the IC50 in test [1] is 1900 nM. In addition, the inhibition at 10 µM in test [3] (setting [5]) was 6.35%.

As to `c1cc(Nc2ccc(-c3cnco3)cc2)nc(N2CCNCC2)n1` [Example 358, N-(4-(oxazol-5-yl)phenyl)-2-(piperazin-1-yl)pyrimidin-4-amine], the IC50 in test [1] was above 10000 nM. Besides, the inhibition at 10 µM in test [3] (setting [5]) was 24.3%.

Consider `Nc1cc(-c2ccc(Nc3ccnc(N4CCNCC4)n3)cc2)ccn1` [Example 359, N-(4-(2-aminopyridin-4-yl)phenyl)-2-(piperazin-1-yl)pyrimidin-4-amine], for which, in test [1], the IC50 is above 10000 nM. Further, the inhibition at 10 µM in test [3] (setting [5]) came out at 21.8%.

Turning to `O=c1cc(-c2ccc(Nc3ccnc(N4CCNCC4)n3)cc2)cc[nH]1` [Example 360, 4-(4-((2-(piperazin-1-yl)pyrimidin-4-yl)amino)phenyl)pyridin-2(1H)-one], in test [1], the concentration for half-maximal inhibition (IC50) was found to be 5200 nM. Moreover, in test [3] (setting [5]), the inhibition at 10 µM was determined as 1.69%.

With `Nc1ncc(-c2ccc(Nc3ccnc(N4CCNCC4)n3)cc2)s1` [Example 361, 5-(4-((2-(piperazin-1-yl)pyrimidin-4-yl)amino)phenyl)thiazol-2-amine], the IC50 in test [1] was above 10000 nM. The inhibition at 10 µM in test [3] (setting [5]) amounted to 2.02%.

Regarding `O=C1Cc2cc(Nc3ccnc(N4CCNCC4)n3)ccc2N1` [Example 365, 5-((2-(piperazin-1-yl)pyrimidin-4-yl)amino)indolin-2-one], the IC50 in test [1] is above 10000 nM. Besides, the inhibition at 10 µM in test [3] (setting [5]) was determined as 5.72%.

On to `c1cc(Nc2ccc(-c3ccnc4[nH]ccc34)cc2)nc(N2CCNCC2)n1` [Example 368, N-(4-(1H-pyrrolo[2,3-b]pyridin-4-yl)phenyl)-2-(piperazin-1-yl)pyrimidin-4-amine], for which the IC50 in test [1] amounted to 1050 nM; in test [3] (setting [4]) it was 1630 nM. Further, the inhibition at 10 µM in test [3] (setting [5]) worked out at 91.3%.

Consider `c1cc(Nc2cnc3[nH]ccc3c2)nc(N2CCCNCC2)n1` [Example 370, N-(2-(1,4-diazepan-1-yl)pyrimidin-4-yl)-1H-pyrrolo[2,3-b]pyridin-5-amine], for which the IC50 in test [1] is 6270 nM. For the same compound, in test [3] (setting [5]), the inhibition at 10 µM was 5.8%.
